The OligoGym collection
“And” between values parts separate entries of the source, which are not always exact repeats. Equal entries are not always repeated. After the bases stand the sugars from the 5' end (letter, count) and the backbone: PS all phosphorothioate, else s phosphorothioate and o phosphodiester by linkage. Methylation of C is not given here. e = 2'-O-(2-methoxyethyl) (MOE); k = constrained ethyl (cEt); d = 2'-deoxy (DNA)

Biological target: IRF4
Conditions: ASO, H929, 0.04 µM

**Q.** With “TGTGTATTACTCTTAG (sugars kkdddddddddkdkdk, PS)” as the sequence, how does the target mRNA inhibition read?
**A.** Its target mRNA inhibition is 40% and 47%.

Same assay, conditions: ASO, KMS11, 0.2 µM

**Q.** “TGTGTATTACTCTTAG (sugars kkdddddddddkdkdk, PS)” was tested. Which target mRNA inhibition did it give?
**A.** The target mRNA inhibition was 62% and 74%.

Same assay, conditions: ASO, MM.1R, 0.0625 µM

**Q.** For TGCTTGAATTCCTTGA (sugars k3 d10 k3, PS), which target mRNA inhibition is on record?
**A.** The target mRNA inhibition was -6% and -14%.

**Q.** Which target mRNA inhibition does the source give for “TGGTTGGCTGGTCTTT (sugars kkddddddddddkeke, PS)” here?
**A.** Its target mRNA inhibition is 41%.

**Q.** TGTGTATTACTCTTAG (sugars k3 d10 k3, PS) was tested. Which target mRNA inhibition did it give?
**A.** Its target mRNA inhibition is 3%.

**Q.** With “TGTGTATTACTCTTAG (sugars kkdddddddddkdkdk, PS)” as the sequence, how does the target mRNA inhibition read?
**A.** The target mRNA inhibition was 54%.

Same assay, conditions: ASO, MM.1R, 0.074 µM

**Q.** Which target mRNA inhibition does the source give for TGCTTGAATTCCTTGA (sugars k3 d10 k3, PS) here?
**A.** Its target mRNA inhibition is 13%.

Same assay, conditions: ASO, MM.1R, 0.222 µM

**Q.** For TGCTTGAATTCCTTGA (sugars k3 d10 k3, PS), which target mRNA inhibition is on record?
**A.** The target mRNA inhibition was 12%.

Same assay, conditions: ASO, MM.1R, 0.25 µM

**Q.** Which target mRNA inhibition does the source give for TGCTTGAATTCCTTGA (sugars k3 d10 k3, PS) here?
**A.** The target mRNA inhibition was 1% and -8%.

**Q.** Which target mRNA inhibition does the source give for “TGGTTGGCTGGTCTTT (sugars kkddddddddddkeke, PS)” here?
**A.** The target mRNA inhibition was 56%.

**Q.** TGTGTATTACTCTTAG (sugars k3 d10 k3, PS) was tested. Which target mRNA inhibition did it give?
**A.** The target mRNA inhibition was 20%.

**Q.** For “TGTGTATTACTCTTAG (sugars kkdddddddddkdkdk, PS)”, which target mRNA inhibition is on record?
**A.** Its target mRNA inhibition is 62%.

Same assay, conditions: ASO, MM.1R, 0.666 µM

**Q.** TGCTTGAATTCCTTGA (sugars k3 d10 k3, PS) was tested. Which target mRNA inhibition did it give?
**A.** Its target mRNA inhibition is 23%.

Same assay, conditions: ASO, MM.1R, 1 µM

**Q.** For TGCTTGAATTCCTTGA (sugars k3 d10 k3, PS), which target mRNA inhibition is on record?
**A.** The target mRNA inhibition was 23% and 25%.

**Q.** Which target mRNA inhibition does the source give for “TGCTTGAGGTTTTCCT (sugars k2 d9 e3 k2, PS)” here?
**A.** Its target mRNA inhibition is 32%.

**Q.** “TGCTTGAGGTTTTCCT (sugars kkdddddddddekeke, PS)” was tested. Which target mRNA inhibition did it give?
**A.** The target mRNA inhibition was 45%.

**Q.** With “TGCTTGAGGTTTTCCT (sugars kkdddddddddkdkdk, PS)” as the sequence, how does the target mRNA inhibition read?
**A.** The target mRNA inhibition was 45%.

**Q.** TGCTTTGCAGCATTGG (sugars k3 d10 k3, PS) was tested. Which target mRNA inhibition did it give?
**A.** Its target mRNA inhibition is 30%.

**Q.** “TGGGATTATATACTGG (sugars k2 d9 e3 k2, PS)” was tested. Which target mRNA inhibition did it give?
**A.** Its target mRNA inhibition is 54%.

**Q.** Which target mRNA inhibition does the source give for “TGGGATTATATACTGG (sugars kddddddddddkekek, PS)” here?
**A.** Its target mRNA inhibition is 43%.

**Q.** With “TGGTTGGCTGGTCTTT (sugars k2 d9 e3 k2, PS)” as the sequence, how does the target mRNA inhibition read?
**A.** The target mRNA inhibition was 40%.

**Q.** “TGGTTGGCTGGTCTTT (sugars kkddddddddddkeke, PS)” was tested. Which target mRNA inhibition did it give?
**A.** The target mRNA inhibition was 80% and 68%.

**Q.** With TGTAACTGACTAACAG (sugars k3 d10 k3, PS) as the sequence, how does the target mRNA inhibition read?
**A.** The target mRNA inhibition was -31%.

**Q.** How did the target mRNA inhibition turn out when TGTAGAAGCCCACAAG (sugars k3 d10 k3, PS) was run?
**A.** Its target mRNA inhibition is -7%.

**Q.** Which target mRNA inhibition does the source give for “TGTAGTATGAGAAACG (sugars k2 d9 e3 k2, PS)” here?
**A.** Its target mRNA inhibition is 7%.

**Q.** With “TGTAGTATGAGAAACG (sugars kkdddddddddekeke, PS)” as the sequence, how does the target mRNA inhibition read?
**A.** The target mRNA inhibition was 13%.

**Q.** Which target mRNA inhibition does the source give for TGTGAACCTGCTAAAG (sugars k3 d10 k3, PS) here?
**A.** Its target mRNA inhibition is -10%.

**Q.** How did the target mRNA inhibition turn out when “TGTGATAGCTGAGCTG (sugars kdddddddddkekeke, PS)” was run?
**A.** The target mRNA inhibition was 18%.

**Q.** Which target mRNA inhibition does the source give for “TGTGCTTGCCAAGCCT (sugars kdddddddddkekeke, PS)” here?
**A.** Its target mRNA inhibition is -3% and 16%.

**Q.** Which target mRNA inhibition does the source give for “TGTGCTTGCCAAGCCT (sugars kkddddddddddkeke, PS)” here?
**A.** Its target mRNA inhibition is 26% and 30%.

**Q.** How did the target mRNA inhibition turn out when “TGTGCTTGCCAAGCCT (sugars kkdddddddddkekek, PS)” was run?
**A.** Its target mRNA inhibition is 2% and 18%.

**Q.** With “TGTGTATTACTCTTAG (sugars k2 d9 e3 k2, PS)” as the sequence, how does the target mRNA inhibition read?
**A.** Its target mRNA inhibition is 41% and 24%.

**Q.** TGTGTATTACTCTTAG (sugars k3 d10 k3, PS) was tested. Which target mRNA inhibition did it give?
**A.** The target mRNA inhibition was 75% and 62%.

**Q.** For “TGTGTATTACTCTTAG (sugars kkddddddddddkeke, PS)”, which target mRNA inhibition is on record?
**A.** Its target mRNA inhibition is 51% and 39%.

**Q.** For “TGTGTATTACTCTTAG (sugars kkdddddddddkdkdk, PS)”, which target mRNA inhibition is on record?
**A.** The target mRNA inhibition was 81% and 71% and 72%.

**Q.** With “TGTTACCGATGCTTCA (sugars k2 d9 e3 k2, PS)” as the sequence, how does the target mRNA inhibition read?
**A.** Its target mRNA inhibition is 31% and 39%.

**Q.** Which target mRNA inhibition does the source give for “TGTTACCGATGCTTCA (sugars kddddddddddkekek, PS)” here?
**A.** The target mRNA inhibition was 26% and 18%.

**Q.** With “TGTTACCGATGCTTCA (sugars kkdddddddddkdkdk, PS)” as the sequence, how does the target mRNA inhibition read?
**A.** The target mRNA inhibition was 35% and 26%.

**Q.** TTACGCTTATTTTTCC (sugars k3 d10 k3, PS) was tested. Which target mRNA inhibition did it give?
**A.** Its target mRNA inhibition is 39%.

**Q.** TTACTCCGCTGAGTGG (sugars k3 d10 k3, PS) was tested. Which target mRNA inhibition did it give?
**A.** Its target mRNA inhibition is -4%.

**Q.** Which target mRNA inhibition does the source give for TTACTCTTAGGCACAT (sugars k3 d10 k3, PS) here?
**A.** Its target mRNA inhibition is 44% and 45%.

**Q.** Which target mRNA inhibition does the source give for TTACTGTTACCGATGC (sugars k3 d10 k3, PS) here?
**A.** Its target mRNA inhibition is 26% and 35%.

**Q.** For TTAGCCAATTCCTCCA (sugars k3 d10 k3, PS), which target mRNA inhibition is on record?
**A.** Its target mRNA inhibition is 36% and 47%.

**Q.** For “TTATATACTGGTTGGT (sugars kkdddddddddekeke, PS)”, which target mRNA inhibition is on record?
**A.** The target mRNA inhibition was 64%.

**Q.** For “TTATATACTGGTTGGT (sugars kkdddddddddkekek, PS)”, which target mRNA inhibition is on record?
**A.** The target mRNA inhibition was 50%.

**Q.** Which target mRNA inhibition does the source give for TTATCATCCGAAAAGA (sugars k3 d10 k3, PS) here?
**A.** The target mRNA inhibition was 4%.

**Q.** How did the target mRNA inhibition turn out when “TTATGTTAGCCAATTC (sugars kkdddddddddkekek, PS)” was run?
**A.** The target mRNA inhibition was 11% and 19%.

**Q.** For TTCACACTGCCGTGAT (sugars k3 d10 k3, PS), which target mRNA inhibition is on record?
**A.** Its target mRNA inhibition is -12%.

**Q.** For TTCATGTAAAGTCTGC (sugars k3 d10 k3, PS), which target mRNA inhibition is on record?
**A.** The target mRNA inhibition was 57% and 55%.

**Q.** TTCCGGGTGTGGCTGA (sugars k3 d10 k3, PS) was tested. Which target mRNA inhibition did it give?
**A.** The target mRNA inhibition was 25%.

**Q.** How did the target mRNA inhibition turn out when “TTGATGTGATAGCTGA (sugars kddddddddddkekek, PS)” was run?
**A.** The target mRNA inhibition was 12%.

**Q.** Which target mRNA inhibition does the source give for “TTGATGTGATAGCTGA (sugars kdddddddddkekeke, PS)” here?
**A.** The target mRNA inhibition was 34%.

**Q.** With “TTGATGTGATAGCTGA (sugars kkdddddddddekeke, PS)” as the sequence, how does the target mRNA inhibition read?
**A.** Its target mRNA inhibition is 28%.

**Q.** Which target mRNA inhibition does the source give for TTGCTAGATTCTCCCT (sugars k3 d10 k3, PS) here?
**A.** The target mRNA inhibition was 16%.

**Q.** Which target mRNA inhibition does the source give for “TTGGTTGGCTGGTCTT (sugars kdddddddddkekeke, PS)” here?
**A.** The target mRNA inhibition was -7%.

**Q.** With “TTGGTTGGCTGGTCTT (sugars kkdddddddddkdkdk, PS)” as the sequence, how does the target mRNA inhibition read?
**A.** Its target mRNA inhibition is 55%.

Same assay, conditions: ASO, MM.1R, 2 µM

**Q.** For TGCTTGAATTCCTTGA (sugars k3 d10 k3, PS), which target mRNA inhibition is on record?
**A.** Its target mRNA inhibition is 39%.

Same assay, conditions: ASO, MM.1R, 4 µM

**Q.** How did the target mRNA inhibition turn out when TGCTTGAATTCCTTGA (sugars k3 d10 k3, PS) was run?
**A.** Its target mRNA inhibition is 53% and 68%.

**Q.** Which target mRNA inhibition does the source give for “TGGTTGGCTGGTCTTT (sugars kkddddddddddkeke, PS)” here?
**A.** Its target mRNA inhibition is 85%.

**Q.** TGTGTATTACTCTTAG (sugars k3 d10 k3, PS) was tested. Which target mRNA inhibition did it give?
**A.** Its target mRNA inhibition is 93%.
